Experimental data: patent US6838436B1, “Inhibitors of proteasomal activity for stimulating bone growth” (Osteoscreen Inc., priority 1998, dated 2005)
Where a SMILES comes first, the peptide text is derived from it. The star is where a group is joined. Cbz = O=C(OCc1ccccc1)*; OtBu = CC(C)(C)O*

Legend:
[1] = biological target: chymotrypsin (Bos taurus, UniProt P00766); settings: cited from earlier work
[2] = biological target: T1, papain (Carica papaya, UniProt P00784); settings: cited from earlier work
T1 sequence (P00784 134-345): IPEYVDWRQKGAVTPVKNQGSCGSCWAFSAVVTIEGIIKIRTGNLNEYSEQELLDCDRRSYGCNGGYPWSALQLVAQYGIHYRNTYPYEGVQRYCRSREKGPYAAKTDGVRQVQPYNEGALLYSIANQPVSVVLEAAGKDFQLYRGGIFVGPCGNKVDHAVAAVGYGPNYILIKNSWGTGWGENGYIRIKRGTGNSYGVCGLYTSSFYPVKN

[3] = test system: hair follicles; test: Hair growth without depilation, shaved dorsal trunks (Example 15); type: in vivo, C57 BL/6 mice; settings: for growth of new hair at the site of drug application: sixteenth day
Protocol: To confirm that the responses described above occurred in the absence of depilation and in other strains of mice, PS1 (0.5%) was applied topically once daily for 5 days to eight week old male C57 BL/6 mice in which the dorsal trunks were shaved but not depilated. For this experiment, the hair of 18 C57 BL/6 mice was carefully clipped the hair from the dorsal trunks. Three groups were tested. One group was treated with PS1 (0.5%) applied topically to the shaved area daily. In the second group, PS1 (1 mg/kg body weight/day) was injected locally into the subcutaneous tissue of the shaved area. These two groups were compared with the third group, which was untreated other than the hair on the dorsal trunk was similarly clipped. Blonde hair dye (extra strength bleach powder and 12% hydrogen peroxide in a 1 to 1 w/v ratio) was applied to the dorsal trunks of all mice on the seventh day in order to make it easier to detect new hair growth represented by appearance in the blonded areas of the natural black hair of the mice associated with induction of melanogenesis.

[4] = test system: hair follicles; test: Effects on subcutaneous tissue of the scalp (Example 10); type: in vivo, ICR mice; settings: 1 mg/kg body weight/day injected daily for 5 days; examined 16 days later
Protocol: Effects of PS1 on subcutaneous tissue of the scalp of 6-weeks old ICR mice from longitudinal and transverse sections were determined. PS1 dissolved in 50% propylene glycol, 10% DMSO, and 40% distilled water was injected daily for 5 days (1 mg/kg body weight/day) into the subcutaneous tissue, and the tissue examined histologically 16 days later.

[5] = test system: hair follicles; test: Topical administration of PSI, hair growth (Examples 13 and 14); type: in vivo, mice
Protocol: PSI was prepared as a topical formulation, where the vehicle was 50% propylene glycol, 30% ethanol, 20% deionized water, at 0.1% concentration of PSI. The solution was applied 3 times a day for 5 days. The mice in a treated group were observed as compared to controls similarly treated with vehicle alone.
When the protocol above was repeated using a 0.5% solution of PSI in groups containing 5 mice each, the number of hairs per 0.8 mm^2 was 60 in the treated mice versus about 10 in the control group. The percentage of follicle area in a region of about 0.8 mm was about 30% as an average in the treated group as compared to 15% as an average in the control group.
In order to determine the minimal effective dosage of PSI, when used topically, a dose response curve for PSI was prepared. All experiments were preformed according to current good laboratory practice regulations (21CFR58). The mice were divided into 7 groups, 10 mice each, wherein one group was control treated only with vehicle and groups 1-6 with a series of increasing concentrations of PSI in a vehicle comprising 50% propylene glycol, 30% ethanol, 20% deionized water. The concentrations were 0.006%, 0.012%, 0.025%, 0.05%, 0.11% and 0.5%.
The mice were anesthetized (50 μl Mouse Cocktail containing 3 ml ketamine, 2 ml small animal rompum, 5 ml NaCl), identified by ear punch code, weighed and the hair on the dorsal side removed by waxing as described in Example 6. After waxing, the animals were photographed. On the following day (day 1), 100 μl of PSI at the above concentrations in vehicle was brushed onto the area of removed hair. A similar application of PSI solution was performed daily for an additional 4 days.
On Day 7 mice were anesthetized and a biopsy of the dorsal treatment area taken using a 6 mm dermal punch; the specimens were fixed in 10% buffered formalin and embedded in paraffin wax. Sections were cut using a standard microtome.
Mice were monitored daily for signs of hair growth, and any hair growth was recorded by photography. On day 21 animals were euthanized (75 mg/kg body weight phenobarbital, IP injection), 2 cm hair samples were taken for optical based fiber analysis, and the remaining dorsal treatment area was fixed in 10% buffered formalin for further histological analysis. Analysis included quantification of hair thickness and quantification of mature hair follicles. Results were expressed as the mean=+/−the standard error of the mean. Data were analyzed by repeated measures of analysis of variance followed by the Tukey-Kramer post test P values of <0.05 were considered significant.

[6] = test system: proteasomal activity; settings: cited from earlier work

In the case of CC[C@H](C)[C@H](NC(=O)[C@H]([C@@H](C)CC)N(C)C(C)=O)C(=O)N[C@H](C(=O)N[C@@H](CC(C)C)C(=O)[C@@]1(C)CO1)[C@@H](C)O [Epoxomicin], the “concentration up to which no inhibition appears” value [1] is given as over 50 µM and the “concentration up to which no inhibition appears” value [2] is given as over 50 µM.
With CC[C@H](C)[C@H](NC(=O)OCc1ccccc1)C(=O)N[C@@H](CCC(=O)OC(C)(C)C)C(=O)N[C@@H](C)C(=O)N[C@H](C=O)CC(C)C [PSI, N-carbobenzoyl-Ile-Glu-(OtBu)-Ala-Leu-CHO] (Cbz-IE(OtBu)AL-aldehyde) the “growth of new hair at the site of drug application” value ([3]; 1 mg/kg body weight/day injected locally into the subcutaneous tissue) was “more rapid growth of new hair”, the “growth of new hair at the site of drug application” value ([3]; 0.5% applied topically once daily for 5 days) was “more rapid growth of new hair” and the “diameter of the hair and of the inner and outer root sheath” value ([3]; transverse sections of skin, only in the applied areas) was “increased both the diameter of the hair and the diameter of the inner and outer root sheath”. The “numbers of hair follicles” value [4] was “numbers of hair follicles increased”, the “size of the follicle diameter and the root sheath diameter” value [4] was “obvious increase in size of the follicle diameter and the root sheath diameter” and the “effectiveness on hair growth” value ([5]; 0.1% of PSI applied topically 3 times a day for 5 days (additional experiments)) was “effective”. For the same compound, the “thickness of hair and hair shaft” value ([5]; topical) was “thicken both the hair and the hair shaft”, the “percentage of follicle area in a region of about 0.8 mm” value ([5]; topical 0.5% solution of PSI, average, control 15%) was “about 30%” and the “number of hairs per 0.8 mm^2” value ([5]; topical 0.5% solution of PSI, control about 10) was 60. For the same compound, the “hair growth relative to controls” value ([5]; topical, 0.1% PSI, 3 times a day for 5 days, day 16) was “stimulation of hair growth relative to the controls” and the minimal effective dose ([5]; topical, applied 1 time a day for 4 days) was 0.5%.
For simvastatin, the “effects on proteasomal activity” value [6] is given as “no effects on proteasomal activity”.
